Results as given in patent US20090304821A1, “Pharmaceutical Combination” (Takeda Pharmaceutical Company Limited, priority 2006, published 2009).

Biological target: T1, human CaR (Homo sapiens, UniProt P41180)
T1 construct: expressed in transfected cells; cDNA amplified from human kidney cDNA (TOYOBO); membrane fraction used
T1 sequence (P41180 20-1078): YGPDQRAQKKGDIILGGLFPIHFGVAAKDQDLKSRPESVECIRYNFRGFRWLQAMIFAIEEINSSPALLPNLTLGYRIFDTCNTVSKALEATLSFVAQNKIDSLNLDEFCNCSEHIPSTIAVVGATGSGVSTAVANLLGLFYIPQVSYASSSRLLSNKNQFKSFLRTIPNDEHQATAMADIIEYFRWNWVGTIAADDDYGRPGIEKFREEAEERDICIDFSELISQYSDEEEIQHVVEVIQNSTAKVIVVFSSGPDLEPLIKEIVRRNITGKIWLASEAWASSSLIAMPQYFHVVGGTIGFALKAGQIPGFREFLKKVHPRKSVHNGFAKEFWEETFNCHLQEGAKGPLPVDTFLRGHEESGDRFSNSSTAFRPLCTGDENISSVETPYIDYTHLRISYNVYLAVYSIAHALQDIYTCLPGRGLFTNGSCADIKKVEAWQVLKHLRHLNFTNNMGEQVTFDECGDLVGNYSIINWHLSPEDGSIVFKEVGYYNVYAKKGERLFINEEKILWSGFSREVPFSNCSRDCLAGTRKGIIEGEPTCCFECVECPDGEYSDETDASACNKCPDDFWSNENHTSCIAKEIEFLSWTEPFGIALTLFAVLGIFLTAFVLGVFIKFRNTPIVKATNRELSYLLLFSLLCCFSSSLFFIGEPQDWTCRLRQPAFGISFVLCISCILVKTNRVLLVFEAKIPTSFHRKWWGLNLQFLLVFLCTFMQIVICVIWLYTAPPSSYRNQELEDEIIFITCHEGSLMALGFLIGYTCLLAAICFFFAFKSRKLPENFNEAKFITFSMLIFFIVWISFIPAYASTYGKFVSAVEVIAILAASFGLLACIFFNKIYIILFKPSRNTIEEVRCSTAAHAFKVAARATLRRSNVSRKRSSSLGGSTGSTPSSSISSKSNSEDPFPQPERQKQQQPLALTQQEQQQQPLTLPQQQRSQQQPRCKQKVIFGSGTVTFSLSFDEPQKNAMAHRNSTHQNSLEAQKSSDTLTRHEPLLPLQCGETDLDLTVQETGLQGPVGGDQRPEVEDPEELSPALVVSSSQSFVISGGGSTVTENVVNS
Assay: GTPγS binding assay on human CaR-expressing CHO cell membrane
Assay type: biochemical
Settings: % of binding with 6 mM calcium only
Experimental: Preparation of Membrane Fraction is Described Bellow. The human CaR-expressing CHO cells were inoculated to a F500 flask in 1.8×10^5 cells/flask followed by cultivation for 2 days. The cells were scraped with 10 ml of Phosphate-Buffered Saline containing 0.02% EDTA. After centrifugation (2000 rpm, 10 min) of the cells, the cell pellet was resuspended into 12 ml of homogenate buffer solution (10 mM NaHCO3, 1 mM EDTA, 1× Protease inhibitor cocktail (pH 7.4)) and homogenized by Polytron™ (2000 rpm, 1 min). The cell debris was removed by centrifugation (2000 rpm, 10 min), and then the CaR-expressing cell membrane fraction was collected by ultracentrifugation (Beckman 70 Ti type rotor, 30000 rpm, 1 hour).
The GTPγS binding activity was measured as follows. Twenty μg of the CaR-expressing cell membrane was incubated with test compounds for 10 min. The assays were carried out at room temperature for an hour in a reaction mixture solution containing 20 mM HEPES (pH.7.4), 100 mM NaCl, 1 mM MgCl2, 167 μg/ml DTT, 5 μM guanosine 5′-diphosphate, 0.4 nM [^35S]-guanosine 5′-(γ-thio) triphosphate ([^35S]-GTPγS) and 6 mM CaCl2. The reaction mixture was filtered through a GF/C filter. After washing four times with 300 μl of Phosphate-Buffered Saline, the amount of [^35S]-GTPγS bound to the filter was measured using a Top-count scintillation counter.
Effects of test compounds on [^35S]-GTPγS binding were expressed in percentage terms. This was calculated from the equation [100×(t′−b)]/(t−b)]. Herein, t′, t and b are values of [^35S]-GTPγS binding (dpm), t′ is a value in the presence of 6 mM calcium and the test compound, t is a value in the presence of 6 mM calcium only and b is a value in the absence of both 6 mM calcium and the test compound.

[1] = 1 μM test compound, compounds marked antagonist

SMILES	[^35S]-GTPγS binding (%) [1]	[^35S]-GTPγS binding (%) (10 μM test compound, compound marked agonist)
COc1ccc(C(CNC(=O)c2cnn3c2NC(c2ccccc2)CC3C(F)(F)F)c2ccccc2)cc1 (stereo not shown) [Test Compound 1, N-(2-(4-methoxyphenyl)-2-phenylethyl)-5-phenyl-7-(trifluoromethyl)-4,5,6,7-tetrahydropyrazolo[1,5-a]pyrimidine-3-carboxamide]	34 (1 μM) %	
COc1ccc(C(NC(=O)c2cnn3c2NC(c2ccccc2)CC3C)c2ccc(OC)cc2)cc1 (stereo not shown) [Test Compound 2, N-(bis(4-methoxyphenyl)methyl)-7-methyl-5-phenyl-4,5,6,7-tetrahydropyrazolo[1,5-a]pyrimidine-3-carboxamide]	0 (1 μM) %	
CCC(CC)(NC(=O)c1cnn2c1NC(c1ccccc1)CC2C(F)(F)F)c1ccc(C(F)(F)F)cc1 (stereo not shown) [Test Compound 3, N-(1-ethyl-1-(4-(trifluoromethyl)phenyl)propyl)-5-phenyl-7-(trifluoromethyl)-4,5,6,7-tetrahydropyrazolo[1,5-a]pyrimidine-3-carboxamide]	0 (1 μM) %	
Cc1ccc(C(OC2CCN(C(=O)c3cnn4c3NC(c3ccccc3)CC4C(F)(F)F)CC2)c2ccc(C)cc2)cc1 (stereo not shown) [Test Compound 4, 3-((4-(bis(4-methylphenyl)methoxy)-1-piperidinyl)carbonyl)-5-phenyl-7-(trifluoromethyl)-4,5,6,7-tetrahydropyrazolo[1,5-a]pyrimidine]	10 (1 μM) %	
CC1(C(F)(F)F)CC(c2ccccc2)Nc2c(C(=O)NC34CC5CC(CC(C5)C3)C4)cnn21 (stereo not shown) [Test Compound 5, N-(1-adamantyl)-7-methyl-5-phenyl-7-(trifluoromethyl)-4,5,6,7-tetrahydropyrazolo[1,5-a]pyrimidine-3-carboxamide]	12 (1 μM) %	
CCC(CC)(NC(=O)c1cnn2c1NC(c1ccccc1)CC2(C)C)c1ccc(-c2ccsc2)cc1 (stereo not shown) [Test Compound 6, N-(1-ethyl-1-(4-(3-thienyl)phenyl)propyl)-7,7-dimethyl-5-phenyl-4,5,6,7-tetrahydropyrazolo[1,5-a]pyrimidine-3-carboxamide]	0 (1 μM) %	
O=C(NCC(c1ccccc1)N1CCCC1)c1cnn2c1NC(c1ccccc1)CC2C(F)(F)F (stereo not shown) [Test Compound 7, 5-phenyl-N-(2-phenyl-2-(1-pyrrolidinyl)ethyl)-7-(trifluoromethyl)-4,5,6,7-tetrahydropyrazolo[1,5-a]pyrimidine-3-carboxamide]		256 (10 μM) %
